Data reported in patent US20250282785A1, “PYRROLIDINONE DERIVATIVES AS INHIBITORS OF NF KAPPA B INDUCING KINASE” (priority 2022, published 2025).

Columns and labels:
[1] = molecular target: Recombinant Human NF-Kappab-Inducing Kinase (NIK/MAP3K14) (Homo sapiens, UniProt Q99558); experiment: Inhibition of auto-phosphorylation of recombinant human NIK/MAP3K14 (AlphaScreen); assay type: biochemical; settings: NIK/MAP3K14 auto-phosphorylation, 5 microM ATP, 1 nM enzyme, 2 h at 25° C.; average of values; read-out: Assay 1 IC50
Summary of the method: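 GST-tagged NIK (1 nM) auto-phosphorylation with 5 µM ATP in Tris pH 7.5/MgCl2 buffer, 0.7% DMSO, 2 h at 25 °C. Phospho-IKK Ser176/180 antibody detected by AlphaScreen beads. Signal normalized to full-enzyme and no-ATP controls; IC50 from sigmoidal fit of % inhibition vs log concentration.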

[2] = system: p-IKKα levels in L363 (NIK translocated multiple myeloma) cells; experiment: Effect of compounds on p-IKKα levels in L363 cells (AlphaLISA SureFire Ultra); assay type: cell-based; settings: Homo sapiens, L-363; L363 cells, BAFF stimulated, MG132, 6 h; average of values; read-out: Assay 2 IC50
Summary of the method: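 L363 myeloma cells were BAFF-stimulated (250 ng/ml) overnight in DMEM/0.5% BSA, then exposed 6 h at 37° C to compound (11-point 1:3 series, 0.3% DMSO) with BAFF plus 10 uM MG132. p-IKKα (Ser 176/180) was read by AlphaLISA SureFire Ultra in lysates. IC50 came from sigmoidal fits normalized to stimulated and unstimulated controls.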

Sequence of Recombinant Human NF-Kappab-Inducing Kinase (NIK/MAP3K14) (Q99558 whole entry): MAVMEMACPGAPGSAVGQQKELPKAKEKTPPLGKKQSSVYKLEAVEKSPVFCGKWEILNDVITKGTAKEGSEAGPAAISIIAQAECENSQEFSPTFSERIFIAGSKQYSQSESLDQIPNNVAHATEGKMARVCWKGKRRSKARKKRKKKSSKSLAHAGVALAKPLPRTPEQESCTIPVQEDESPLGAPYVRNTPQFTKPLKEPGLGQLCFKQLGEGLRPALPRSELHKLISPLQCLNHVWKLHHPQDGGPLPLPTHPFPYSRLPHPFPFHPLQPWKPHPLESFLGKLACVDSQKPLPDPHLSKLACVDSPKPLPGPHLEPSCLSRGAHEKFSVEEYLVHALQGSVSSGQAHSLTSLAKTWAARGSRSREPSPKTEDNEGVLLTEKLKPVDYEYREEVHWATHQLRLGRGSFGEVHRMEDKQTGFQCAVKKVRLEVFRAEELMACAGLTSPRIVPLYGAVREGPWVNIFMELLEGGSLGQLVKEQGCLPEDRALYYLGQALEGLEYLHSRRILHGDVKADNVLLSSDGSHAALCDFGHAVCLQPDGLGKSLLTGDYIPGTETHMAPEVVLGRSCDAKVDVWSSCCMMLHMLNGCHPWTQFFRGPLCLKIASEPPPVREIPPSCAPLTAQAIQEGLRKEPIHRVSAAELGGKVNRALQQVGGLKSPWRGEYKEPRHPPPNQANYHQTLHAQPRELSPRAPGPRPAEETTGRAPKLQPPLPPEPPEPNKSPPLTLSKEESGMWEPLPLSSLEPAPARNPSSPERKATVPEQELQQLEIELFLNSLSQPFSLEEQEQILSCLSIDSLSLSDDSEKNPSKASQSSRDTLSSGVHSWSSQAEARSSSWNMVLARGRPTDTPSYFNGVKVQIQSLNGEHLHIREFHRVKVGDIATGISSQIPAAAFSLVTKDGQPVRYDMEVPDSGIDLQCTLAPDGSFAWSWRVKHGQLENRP

Row | Compound | IC50 [1] [nM] | IC50 [2] [nM]
1 | CN1CC[C@@](O)(c2cc(-c3cccc(-c4cc(C(F)(F)F)c5cn[nH]c5n4)c3)no2)C1=O [Example 225, (R)-3-Hydroxy-1-methyl-3-(3-(3-(4-(trifluoromethyl)-1H-pyrazolo[3,4-b]pyridin-6-yl)phenyl)isoxazol-5-yl)pyrrolidin-2-one] | 100 to 500 | > 501
2 | CN1CC[C@@](O)(c2cc(-c3cccc(-c4nc(C(N)=O)c(N)cc4F)c3)no2)C1=O [Example 89, (R)-3-Amino-5-fluoro-6-(3-(5-(3-hydroxy-1-methyl-2-oxopyrrolidin-3-yl)isoxazol-3-yl)phenyl)picolinamide] | < 100 | 100 to 500
3 | CN1CC[C@@](O)(c2cc(-c3cccc(-c4nc(C(N)=O)c5n4CCN(Cc4ccccc4)C5)c3)no2)C1=O [Example 234, (R)-7-Benzyl-3-(3-(5-(3-hydroxy-1-methyl-2-oxopyrrolidin-3-yl)isoxazol-3-yl)phenyl)-5,6,7,8-tetrahydroimidazo[1,5-a]pyrazine-1-carboxamide] | > 501 | > 501
4 | CN1CC[C@@](O)(c2cc(-c3cccc(-c4nc(C(N)=O)c(CNC5CCCC5)s4)c3)no2)C1=O [Example 223, (R)-5-((Cyclopentylamino)methyl)-2-(3-(5-(3-hydroxy-1-methyl-2-oxopyrrolidin-3-yl)isoxazol-3-yl)phenyl)thiazole-4-carboxamide] | < 100 | > 501
5 | CN1CC[C@@](O)(c2cnn(-c3cccc(-c4cccc(C(N)=O)n4)c3)c2)C1=O (single isomer, unassigned) [Example 29] | > 501 | > 501
6 | CN1CC[C@@](O)(c2cc(-c3cccc(-c4ccnc5[nH]ccc45)c3)no2)C1=O [Example 49, (R)-3-(3-(3-(1H-Pyrrolo[2,3-b]pyridin-4-yl)phenyl)isoxazol-5-yl)-3-hydroxy-1-methylpyrrolidin-2-one] | < 100 | > 501
7 | CC(C)c1sc(-c2cccc(-c3cc([C@]4(O)CCN(C)C4=O)on3)c2)nc1C(N)=O [Example 219, (R)-2-(3-(5-(3-Hydroxy-1-methyl-2-oxopyrrolidin-3-yl)isoxazol-3-yl)phenyl)-5-isopropylthiazole-4-carboxamide] | < 100 | > 501
8 | CN1CC[C@@](O)(c2cc(-c3cccc(-c4cccc5c4CNC5=O)c3)no2)C1=O [Example 59, (R)-4-(3-(5-(3-hydroxy-1-methyl-2-oxopyrrolidin-3-yl)isoxazol-3-yl)phenyl)isoindolin-1-one] | > 501 | > 501
9 | [2H]c1nc(N)c2nc(-c3cccc(-c4nc([C@]5(O)CCN(C)C5=O)cs4)c3)ccc2n1 (single isomer, unassigned) [Example 33] | > 501 | > 501
10 | CN1CC[C@@](O)(c2cc(-c3cccc(-c4ncc(NC5CC5)c(C(N)=O)n4)c3)no2)C1=O [Example 111, (R)-5-(Cyclopropylamino)-2-(3-(5-(3-hydroxy-1-methyl-2-oxopyrrolidin-3-yl)isoxazol-3-yl)phenyl)pyrimidine-4-carboxamide] | < 100 | < 100
11 | Cc1cn2nc(-c3cccc(-c4cc([C@]5(O)CCN(C)C5=O)on4)c3)ccc2n1 [Example 65, (R)-3-Hydroxy-1-methyl-3-(3-(3-(2-methylimidazo[1,2-b]pyridazin-6-yl)phenyl)isoxazol-5-yl)pyrrolidin-2-one] | > 501 | > 501
12 | [2H]c1nc(N)c2nc(-c3cccc(-c4cc([C@]5(O)CCN(C)C5=O)n[nH]4)c3)ccc2n1 (single isomer, unassigned) [Example 38] | < 100 | > 501
13 | CN1CC[C@@](O)(c2cc(-c3cccc(-n4nc(C(N)=O)c5ccccc54)c3)no2)C1=O [Example 166, (R)-1-(3-(5-(3-hydroxy-1-methyl-2-oxopyrrolidin-3-yl)isoxazol-3-yl)phenyl)-1H-indazole-3-carboxamide] | < 100 | 100 to 500
14 | [2H]c1nc(N)c2nc(-c3cccc(-c4n[nH]c([C@]5(O)CCN(C)C5=O)n4)c3)ccc2n1 (single isomer, unassigned) [Example 34] | > 501 | > 501
15 | CN1CC[C@@](O)(c2cc(-c3cccc(-c4nc5c(c(C(N)=O)n4)[C@H]4CC[C@@H](C5)O4)c3)no2)C1=O [Example 171, (5R,8S)-2-(3-(5-((R)-3-Hydroxy-1-methyl-2-oxopyrrolidin-3-yl)isoxazol-3-yl)phenyl)-6,7,8,9-tetrahydro-5H-5,8-epoxycyclohepta[d]pyrimidine-4-carboxamide] | < 100 | > 501
16 | [2H]C([2H])([2H])N1CC[C@@](O)(c2cc(-c3cccc(-c4nc(C(N)=O)n5c4CCCC5)c3)no2)C1=O [Example 181, (R)-1-(3-(5-(3-Hydroxy-1-(methyl-d3)-2-oxopyrrolidin-3-yl)isoxazol-3-yl)phenyl)-5,6,7,8-tetrahydroimidazo[1,5-a]pyridine-3-carboxamide] | < 100 | 100 to 500
17 | [2H]c1nc(N)c2nc(-c3cccc(-c4cc([C@@]5(O)CCN(C)C5=O)nn4C)c3)ccc2n1 (single isomer, unassigned) [Example 44] | > 501 | > 501
18 | Cc1nc(-c2cc(-c3cc([C@@]4(O)C(=O)N(C)CC4(F)F)on3)cc(F)c2F)nc2c(N)ncnc12 [Example 123, (R)-3-(3-(3-(8-amino-4-methylpyrimido[5,4-d]pyrimidin-2-yl)-4,5-difluorophenyl)isoxazol-5-yl)-4,4-difluoro-3-hydroxy-1-methylpyrrolidin-2-one] | < 100 | 100 to 500
19 | CN1CC[C@@](O)(c2cc(-c3cccc(-c4ncc(Nc5cnn(CC(F)(F)F)c5)c(C(N)=O)n4)c3)no2)C1=O [Example 145, (R)-2-(3-(5-(3-Hydroxy-1-methyl-2-oxopyrrolidin-3-yl)isoxazol-3-yl)phenyl)-5-((1-(2,2,2-trifluoroethyl)-1H-pyrazol-4-yl)amino)pyrimidine-4-carboxamide] | < 100 | < 100
20 | CN1CC[C@@](O)(c2cc(-c3cccc(-n4nc(C(N)=O)c5cc(F)ccc54)c3)no2)C1=O [Example 101, (R)-5-Fluoro-1-(3-(5-(3-hydroxy-1-methyl-2-oxopyrrolidin-3-yl)isoxazol-3-yl)phenyl)-1H-indazole-3-carboxamide] | < 100 | 100 to 500
21 | CN1CC[C@@](O)(c2cc(-c3cccc(-c4cc(-c5ccnn5C5CC5)cc(C(N)=O)n4)c3)no2)C1=O [Example 185, (R)-4-(1-Cyclopropyl-1H-pyrazol-5-yl)-6-(3-(5-(3-hydroxy-1-methyl-2-oxopyrrolidin-3-yl)isoxazol-3-yl)phenyl)picolinamide] | < 100 | > 501
22 | CN1CC[C@@](O)(c2cc(-c3cccc(-c4cc(C5CC5)c(N)c(C(N)=O)n4)c3)on2)C1=O [Example 108, (R)-3-Amino-4-cyclopropyl-6-(3-(3-(3-hydroxy-1-methyl-2-oxopyrrolidin-3-yl)isoxazol-5-yl)phenyl)picolinamide] | < 100 | < 100
23 | CN1CC[C@@](O)(c2cc(-c3cccc(-c4ccc5ncnc(N6CCC6)c5n4)c3)no2)C1=O [Example 11, (R)-3-(3-(3-(4-(Azetidin-1-yl)pyrido[3,2-d]pyrimidin-6-yl)phenyl)isoxazol-5-yl)-3-hydroxy-1-methylpyrrolidin-2-one] | < 100 | > 501
24 | CN1CC[C@@](O)(c2cc(-c3cccc(-c4ccc(NCC5COC5)c(C(N)=O)n4)c3)no2)C1=O [Example 106, (R)-6-(3-(5-(3-Hydroxy-1-methyl-2-oxopyrrolidin-3-yl)isoxazol-3-yl)phenyl)-3-((oxetan-3-ylmethyl)amino)picolinamide] | < 100 | 100 to 500
25 | CN1CCC(O)(c2cc(-c3cccc(-c4c[nH]c5ncccc45)c3)on2)C1=O (racemic) [Example 9, (R,S)-3-(5-(3-(1H-Pyrrolo[2,3-b]pyridin-3-yl)phenyl)isoxazol-3-yl)-3-hydroxy-1-methylpyrrolidin-2-one] | 100 to 500 | > 501
26 | CN1CC[C@@](O)(c2cc(-c3cccc(-c4cccc5c(=O)[nH]cnc45)c3)no2)C1=O [Example 197, (R)-8-(3-(5-(3-Hydroxy-1-methyl-2-oxopyrrolidin-3-yl)isoxazol-3-yl)phenyl)quinazolin-4(3H)-one] | > 501 | > 501
27 | Cc1cn(-c2cccc(-c3cc([C@]4(O)CCN(C)C4=O)on3)c2)nc1C(N)=O [Example 192, (R)-1-(3-(5-(3-Hydroxy-1-methyl-2-oxopyrrolidin-3-yl)isoxazol-3-yl)phenyl)-4-methyl-1H-pyrazole-3-carboxamide] | < 100 | > 501
28 | CN1CC[C@@](O)(c2cc(-c3cccc(-c4cc(-c5cncs5)cc(C(N)=O)n4)c3)no2)C1=O [Example 184, (R)-6-(3-(5-(3-Hydroxy-1-methyl-2-oxopyrrolidin-3-yl)isoxazol-3-yl)phenyl)-4-(thiazol-5-yl)picolinamide] | < 100 | 100 to 500
29 | CCn1cc(-c2cc(C(N)=O)nc(-c3cccc(-c4cc([C@]5(O)CCN(C)C5=O)on4)c3)c2)c(C)n1 [Example 187, (R)-4-(1-Ethyl-3-methyl-1H-pyrazol-4-yl)-6-(3-(5-(3-hydroxy-1-methyl-2-oxopyrrolidin-3-yl)isoxazol-3-yl)phenyl)picolinamide] | < 100 | 100 to 500
